In PubChem BioAssay AID212 (DTP/NCI, 2004):
“And” between values parts separate entries of the source, which are not always exact repeats. Identical values can stand only once. Records with an inconclusive call do not appear.

Tested on: BDF1 mice, colon carcinoma 38 sc, T/C %
Experiment: NCI In Vivo Anticancer Drug Screen. Data for tumor model Colon Carcinoma 38 (subcutaneous) in B6D2F1 (BDF1) mice
Details: endpoint: median tumor weight (est.), higher = larger tumour
Method: The antitumor activity of compounds was measured in mice bearing transplantable tumors. Survival or tumor size were measured and the results are expressed as the measurement made in the treated group (T) divided by the measurement made in the vehicle treated control group (C). The tumor model used in this assay is Colon Carcinoma 38 (subcutaneous) in B6D2F1 (BDF1) mice

[1] = dose: 6.25 mg/kg/injection, schedule: Q07DX002 (ip), vehicle: saline with Tween-80
[2] = dose: 12.5 mg/kg/injection, schedule: Q07DX002 (ip), vehicle: saline with Tween-80
[3] = dose: 50.0 mg/kg/injection, schedule: Q07DX002 (ip), vehicle: saline with Tween-80
[4] = dose: 1.0 mg/kg/injection, schedule: Q07DX002 (ip), vehicle: saline
[5] = dose: 25.0 mg/kg/injection, schedule: Q07DX002 (ip), vehicle: saline with Tween-80
[6] = dose: 100.0 mg/kg/injection, schedule: Q07DX002 (ip), vehicle: saline with Tween-80
[7] = dose: 6.25 mg/kg/injection, schedule: Q07DX002 (ip), vehicle: Klucel (hydroxypropylcellulose) (HPC)
[8] = dose: 12.5 mg/kg/injection, schedule: Q07DX002 (ip), vehicle: Klucel (hydroxypropylcellulose) (HPC)
[9] = dose: 200.0 mg/kg/injection, schedule: Q07DX002 (ip), vehicle: saline with Tween-80
[10] = dose: 25.0 mg/kg/injection, schedule: Q07DX002 (ip), vehicle: Klucel (hydroxypropylcellulose) (HPC)
[11] = dose: 50.0 mg/kg/injection, schedule: Q07DX002 (ip), vehicle: Klucel (hydroxypropylcellulose) (HPC)
[12] = dose: 100.0 mg/kg/injection, schedule: Q07DX002 (ip), vehicle: Klucel (hydroxypropylcellulose) (HPC)
[13] = dose: 400.0 mg/kg/injection, schedule: Q07DX002 (ip), vehicle: saline with Tween-80

How did the T/C [1] turn out when `O=C(Nc1ccc(C2=NCCN2)cc1)c1ccc(C(=O)Nc2ccc(C3=NCCN3)cc2)c(Cl)c1` was run?
The T/C was 117 % of control.

And the T/C [2]?
The T/C was 117 % of control.

And the T/C [3]?
The T/C was 118 % of control.

Which results are given for `CCCCNCCCNCCCNC(=O)c1csc(-c2csc(CCNC(=O)C(NC(=O)C(C)C(O)C(C)NC(=O)C(NC(=O)c3nc(C(CC(N)=O)NCC(N)C(N)=O)nc(N)c3C)C(OC3OC(CO)C(O)C(O)C3OC3OC(CO)C(O)C(OC(N)=O)C3O)c3cnc[nH]3)C(C)O)n2)n1` (centres undefined)?
T/C (dose: 3.75 mg/kg/injection, schedule: Q07DX002 (ip), vehicle: water): 81 % of control; T/C (dose: 7.5 mg/kg/injection, schedule: Q07DX002 (ip), vehicle: water): 61 % of control; T/C (dose: 15.0 mg/kg/injection, schedule: Q07DX002 (ip), vehicle: water): 56 % of control; T/C (dose: 30.0 mg/kg/injection, schedule: Q07DX002 (ip), vehicle: water): 48 % of control

For `CCCCCC(O)C1C(=O)OC(C)C(O)/C=C/C=C/C=C/C=C/C=C(\C)C(O)C(O)C(O)CC(O)CC(O)CC(O)CC(O)CC1O` (centres undefined), which T/C (dose: 0.5 mg/kg/injection, schedule: Q07DX002 (ip), vehicle: saline) is on record?
Its T/C is 92 % of control.

And the T/C [4]?
The T/C was 118 % of control.

And the T/C (dose: 4.0 mg/kg/injection, schedule: Q07DX002 (ip), vehicle: saline)?
The T/C was 90 % of control.

And the T/C (dose: 8.0 mg/kg/injection, schedule: Q07DX002 (ip), vehicle: saline)?
Its T/C is 95 % of control.

What does the source list for `O=[N+]([O-])O.O=[N+]([O-])O.[NH-]C1CCCCC1[NH-].[Pt+2]` (centres undefined)?
T/C (dose: 0.5 mg/kg/injection, schedule: Q07DX002 (ip), vehicle: dextrose): 101 % of control; T/C (dose: 2.0 mg/kg/injection, schedule: Q07DX002 (ip), vehicle: dextrose): 62 % of control and 81 % of control; T/C (dose: 4.0 mg/kg/injection, schedule: Q07DX002 (ip), vehicle: dextrose): 62 % of control and 81 % of control; T/C (dose: 8.0 mg/kg/injection, schedule: Q07DX002 (ip), vehicle: dextrose): 27 % of control and 33 % of control

What does the source list for `CCOC1=Cc2c(oc3c(C(C)(C)C)cc(OCC)cc23)OC(C(C)(C)C)=C1`?
T/C (dose: 0.78 mg/kg/injection, schedule: Q07DX002 (ip), vehicle: saline with Tween-80): 94 % of control; T/C (dose: 1.56 mg/kg/injection, schedule: Q07DX002 (ip), vehicle: saline with Tween-80): 102 % of control; T/C [1]: 83 % of control (2×) and 88 % of control; T/C [2]: 64 % of control and 65 % of control; T/C [5]: 55 % of control and 64 % of control; T/C [3]: 51 % of control and 65 % of control; T/C [6]: 72 % of control and 77 % of control

What does the source list for `CN(C)C(=O)c1cccc(COc2ccc(N3C(N)=NC(N)=NC3(C)C)cc2Cl)c1`?
T/C (dose: 32.0 mg/kg/injection, schedule: Q07DX003 (ip), vehicle: saline): 87 % of control and 98 % of control; T/C (dose: 64.0 mg/kg/injection, schedule: Q07DX003 (ip), vehicle: saline): 50 % of control; T/C (dose: 128.0 mg/kg/injection, schedule: Q07DX003 (ip), vehicle: saline): 66 % of control; T/C (dose: 256.0 mg/kg/injection, schedule: Q07DX003 (ip), vehicle: saline): 59 % of control

`N#Cc1cn(C2OC(CO)C(O)C2O)c2ncnc(N)c12` (centres undefined) was tested. Which T/C (dose: 0.12 mg/kg/injection, schedule: Q07DX002 (ip), vehicle: saline) did it give?
Its T/C is 91 % of control.

And the T/C (dose: 0.25 mg/kg/injection, schedule: Q07DX002 (ip), vehicle: saline)?
The T/C was 77 % of control.

What about the T/C [4] of the same compound?
The T/C was 86 % of control.

What about the T/C (dose: 2.0 mg/kg/injection, schedule: Q07DX002 (ip), vehicle: saline) of the same compound?
The T/C was 59 % of control.

`C[C@H]1C/C=C/[C@H]2[C@@H]3O[C@]3(C)[C@@H](C)[C@H]3[C@H](Cc4ccccc4)NC(=O)[C@]32OC(=O)O/C=C/[C@@](C)(O)C1=O` was tested. Which T/C [7] did it give?
The T/C was 79 % of control.

And the T/C [8]?
The T/C was 88 % of control.

Which T/C [1] does the source give for `O=C1CC(C(=O)N2Cc3cc4ccccc4nc3C2)CO1` (centres undefined) here?
Its T/C is 72 % of control.

And the T/C [2]?
The T/C was 100 % of control.

What about the T/C [5] of the same compound?
The T/C was 101 % of control.

And the T/C [3]?
The T/C was 122 % of control.

What about the T/C [6] of the same compound?
Its T/C is 124 % of control.

What about the T/C [9] of the same compound?
The T/C was 100 % of control.

How did the T/C [5] turn out when `O=C(O[Si](Cc1ccccc1)(Cc1ccccc1)Cc1ccccc1)N(CCCl)CCCl` was run?
Its T/C is 77 % of control and 102 % of control.

And the T/C [6]?
The T/C was 194 % of control.

What about the T/C [9] of the same compound?
Its T/C is 112 % of control.

With `O=C1C(=O)c2ccccc2C(O)=C1CC=C(Cl)Cl` as the compound, how does the T/C (dose: 25.0 mg/kg/injection, schedule: Q07DX002 (ip), vehicle: other) read?
Its T/C is 81 % of control.

And the T/C (dose: 50.0 mg/kg/injection, schedule: Q07DX002 (ip), vehicle: other)?
The T/C was 90 % of control.

What about the T/C (dose: 100.0 mg/kg/injection, schedule: Q07DX002 (ip), vehicle: other) of the same compound?
Its T/C is 124 % of control.

What about the T/C (dose: 200.0 mg/kg/injection, schedule: Q07DX002 (ip), vehicle: other) of the same compound?
Its T/C is 190 % of control.

How did the T/C (dose: 100.0 mg/kg/injection, schedule: Q07DX002 (ip), vehicle: saline) turn out when `O=c1n[n+]([O-])ccn1C1OC(CO)C(O)C1O` (centres undefined) was run?
Its T/C is 160 % of control.

And the T/C (dose: 200.0 mg/kg/injection, schedule: Q07DX002 (ip), vehicle: saline)?
Its T/C is 117 % of control.

And the T/C (dose: 600.0 mg/kg/injection, schedule: Q07DX002 (ip), vehicle: saline)?
Its T/C is 73 % of control.

With `C=C(Cl)C(=NC(C)(C)C)Nc1ccccc1C` as the compound, how does the T/C [7] read?
Its T/C is 68 % of control.

What about the T/C [8] of the same compound?
The T/C was 96 % of control.

What about the T/C [10] of the same compound?
Its T/C is 76 % of control.

What about the T/C [11] of the same compound?
Its T/C is 84 % of control.

What about the T/C [12] of the same compound?
The T/C was 113 % of control.

For `O=CCC(O)C(O)C(O)CO` (centres undefined), which T/C (dose: 600.0 mg/kg/injection, schedule: Q07DX002 (ip), vehicle: suspension in saline) is on record?
Its T/C is 108 % of control.

And the T/C (dose: 1800.0 mg/kg/injection, schedule: Q07DX002 (ip), vehicle: suspension in saline)?
The T/C was 96 % of control.

And the T/C (dose: 2400.0 mg/kg/injection, schedule: Q07DX002 (ip), vehicle: suspension in saline)?
The T/C was 102 % of control.

And the T/C (dose: 3600.0 mg/kg/injection, schedule: Q07DX002 (ip), vehicle: suspension in saline)?
Its T/C is 74 % of control.

Which results are given for `CC(=O)OCC(=O)[C@@]12OC(C)(C)O[C@@H]1C[C@H]1[C@@H]3CC(C=O)=C4C=C(OCCCl)CC[C@]4(C)[C@@]3(F)[C@@H](O)C[C@@]12C`?
T/C [8]: 86 % of control; T/C (dose: 12.5 mg/kg/injection, schedule: Q07DX003 (ip), vehicle: Klucel (hydroxypropylcellulose) (HPC)): 62 % of control and 76 % of control; T/C [10]: 58 % of control; T/C (dose: 25.0 mg/kg/injection, schedule: Q07DX003 (ip), vehicle: Klucel (hydroxypropylcellulose) (HPC)): 33 % of control and 57 % of control; T/C [11]: 86 % of control; T/C [12]: 94 % of control; T/C (dose: 100.0 mg/kg/injection, schedule: Q07DX003 (ip), vehicle: Klucel (hydroxypropylcellulose) (HPC)): 57 % of control; T/C (dose: 200.0 mg/kg/injection, schedule: Q07DX002 (ip), vehicle: Klucel (hydroxypropylcellulose) (HPC)): 54 % of control; T/C (dose: 200.0 mg/kg/injection, schedule: Q07DX003 (ip), vehicle: Klucel (hydroxypropylcellulose) (HPC)): 48 % of control

What does the source list for `C1OCN2CSCC12` (centres undefined)?
T/C [5]: 97 % of control; T/C [3]: 67 % of control; T/C [6]: 85 % of control; T/C [9]: 79 % of control; T/C [13]: 80 % of control

What does the source list for `COC1(OC)C2C=CC1CC2`?
T/C [2]: 73 % of control; T/C [3]: 105 % of control and 107 % of control; T/C [9]: 80 % of control and 94 % of control; T/C [13]: 113 % of control and 105 % of control

With `COC1CC(C)C(OC)C2=CC(=O)C=C(NC(=O)/C(C)=C/C=C\C(C)C(OC(N)=O)/C(C)=C\C(C)C1OC)C2=O` (centres undefined) as the compound, how does the T/C (dose: 3.13 mg/kg/injection, schedule: Q07DX002 (ip), vehicle: saline + alcohol) read?
The T/C was 111 % of control.

And the T/C (dose: 6.25 mg/kg/injection, schedule: Q07DX002 (ip), vehicle: saline + alcohol)?
Its T/C is 110 % of control.

And the T/C (dose: 12.5 mg/kg/injection, schedule: Q07DX002 (ip), vehicle: saline + alcohol)?
The T/C was 105 % of control.

And the T/C (dose: 25.0 mg/kg/injection, schedule: Q07DX002 (ip), vehicle: saline + alcohol)?
Its T/C is 110 % of control.

What about the T/C (dose: 50.0 mg/kg/injection, schedule: Q07DX002 (ip), vehicle: saline + alcohol) of the same compound?
The T/C was 102 % of control.

How did the T/C [2] turn out when `COc1cc(C(C)(C)C)cc(OC)c1C(O)(c1c(OC)cc(C(C)(C)C)cc1OC)c1c(OC)cc(C(C)(C)C)cc1OC` was run?
The T/C was 70 % of control and 77 % of control.

And the T/C [3]?
The T/C was 95 % of control and 102 % of control.

And the T/C [9]?
Its T/C is 88 % of control.

What about the T/C [13] of the same compound?
The T/C was 62 % of control.
